Measurements: paper PMC4868099 (ACS Medicinal Chemistry Letters, 2016)
“Also recorded” adds a separate entry of the source. Each block holds one molecule with its values, some of them ahead of it.

Key:
[1] = biological target: T1, human kidney-type glutaminase (hKGA124–669) (Homo sapiens, UniProt O94925); format: biochemical
T1 sequence (O94925 124-669): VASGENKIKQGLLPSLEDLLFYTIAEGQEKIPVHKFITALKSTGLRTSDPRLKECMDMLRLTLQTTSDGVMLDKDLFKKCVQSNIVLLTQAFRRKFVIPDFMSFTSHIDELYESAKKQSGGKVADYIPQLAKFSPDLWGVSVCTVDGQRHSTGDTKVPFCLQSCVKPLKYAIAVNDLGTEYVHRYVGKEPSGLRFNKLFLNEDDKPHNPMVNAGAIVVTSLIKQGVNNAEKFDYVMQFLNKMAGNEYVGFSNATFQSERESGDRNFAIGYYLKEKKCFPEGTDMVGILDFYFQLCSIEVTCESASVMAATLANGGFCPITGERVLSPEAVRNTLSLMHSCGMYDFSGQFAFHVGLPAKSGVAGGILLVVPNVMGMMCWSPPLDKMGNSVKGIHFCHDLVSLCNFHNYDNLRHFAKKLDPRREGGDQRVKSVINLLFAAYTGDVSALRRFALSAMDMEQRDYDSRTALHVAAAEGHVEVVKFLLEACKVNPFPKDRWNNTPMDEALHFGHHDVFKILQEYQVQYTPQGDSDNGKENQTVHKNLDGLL

[2] = tested on: GLS (both KGA and GAC isoenzymes) over GLS2; settings: cited from earlier work
MDA-MB-231 = test: Cell growth / viability, CellTiter-Glo, MDA-MB-231; format: cell-based, human; settings: 72 h of incubation
HCC1806 = test: Cell growth / viability, CellTiter-Glo, HCC1806; format: cell-based, human; settings: 72 h of incubation

higher GLS inhibitory potency compared with 2p [1]: 10 fold
Compound: O=C(Cc1ccc(O)cc1)Nc1nnc(CCCCc2nnc(NC(=O)Cc3ccc(O)cc3)s2)s1 [2q]

Compound: [N-]=[N+]=CC(=O)CC[C@H](N)C(=O)O [DON, 6-Diazo-5-oxo-L-norleucine]
selectivity GLS versus GLS2 [2]: inhibits both GLS and GLS2

Compound: O=C(Cc1ccccc1)Nc1nnc(CCCCc2nnc(NC(=O)Cc3ccc(O)cc3)s2)s1 [compound 2m, 4-hydroxy-N-[5-[4-[5-[(2-phenylacetyl)amino]-1,3,4-thiadiazol-2-yl]butyl]-1,3,4-thiadiazol-2-yl]-benzeneacetamide]
increase in GLS inhibitory potency from the corresponding acetoxy derivative 2j [1]: ~8 fold
time dependency of GLS inhibitory potency (effect of preincubation time) ([1]; Figure 2): no time-dependent increase in GLS inhibitory potency; also recorded: did not exhibit time-dependency
antiproliferative effect compared with BPTES and CB-839 in MDA-MB-231 (MDA-MB-231): least effective
growth inhibition of MDA-MB-231 (MDA-MB-231; 1000 nM, P < 0.05 compared to controls): statistically significant growth inhibition
antiproliferative effect compared with BPTES and CB-839 in HCC1806 (HCC1806): least effective
